Patent US20200390128A1 (Lennham Pharmaceuticals, Inc., priority 2019, published 2020)
Where two headings read alike, the source gives them in different places.

Experiments:
[1] = Brain concentrations and brain pharmacokinetics after a single oral (gavage) dose in fasted male Sprague-Dawley rats, LC-MS/MS; format: in vivo; conditions: for measurable brain concentrations: after 2 mg/kg oral; for concentration at 1 h: 1 hour post dose; for concentration at 4 h: 4 hour post dose; for concentration at 14 h: 14 hour post dose
Description: Water was provided ad libitum.
Immediately after the 1, 4, 8 and 14-hour blood collections, three animals/group were euthanized and the brain was dissected out of each rat. The brains were rinsed with saline and dried, placed in pre-weighed conical tubes, and flash frozen in liquid nitrogen. Brain weights were calculated for each sample.

in vivo = conditions: male, Sprague-Dawley, rat, plasma, po, 2 mg/kg
Description: (§1) Serial blood samples were collected from three animals per group per timepoint prior to dosing and at 0.25, 0.5, 1, 2, 3 4, 6, 8, 10, 12, and 14-hours post dose.
(§2) Animals were fasted overnight prior to dose administration. Water was provided ad libitum. Food was returned after the collection of the 4-hour samples.
(§3) Doses (rounded to the nearest 0.001 mL) were calculated based on the pretreatment body weight (kg) and a dose volume of 10 mL/kg.
(§4) Serial blood samples (˜300 μL) were collected from three animals per group per timepoint into tubes containing sodium heparin prior to dosing and at 0.25, 0.5, 1, 2, 3, 4, 6, 8, 10, 12, and 14-hours post dose. […] Blood samples were stored on wet ice until being processed for plasma via centrifugation (3500 g for 10 minutes at 5° C.) within 30 minutes of collection.
(§5) The concentration-time data were analyzed to fit an extra-vascular (oral gavage) dosing plasma analysis model (200) using the software WinNonlin Phoenix version 6.3 (Pharsight).
(§6) Half-lives are reported if the correlation for the regression line, as measured by r squared, is ≥0.9, when rounded.

[2] = Plasma pharmacokinetics after a single oral (gavage) dose in fasted male Sprague-Dawley rats, LC-MS/MS; conditions: for Concentration in plasma, Mean: fasted male Sprague-Dawley rats, n = 3/time point; for measurable plasma concentrations: after 2 mg/kg oral; for AUClast / T 1/2 (terminal half life): fasted male Sprague Dawley rats;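 on all read-outs here: plasma from heparinized blood sampled up to 14 h post dose, three rats per timepoint, parameters by non-compartmental analysis of mean concentration-time data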
Description: as §1, §2, §3, §4, §5, §6

[3] = male, Sprague-Dawley, rat, brain, po, 2 mg/kg, oral gavage 2 mg/kg, fasted male Sprague-Dawley rats, n = 3/time point
[4] = male, Sprague-Dawley, rat, brain, po, 2 mg/kg, brain, molecular weight corrected (caffeine values multiplied by 0.956), oral gavage 2 mg/kg, rats, read-out: AUClast,corr
[5] = male, Sprague-Dawley, rat, brain, po, 2 mg/kg, brain, molecular weight corrected (caffeine values multiplied by 0.956), oral gavage 2 mg/kg, rats, read-out: Cmax,corr
[6] = male, Sprague-Dawley, rat, brain, po, 2 mg/kg, brain, oral gavage 2 mg/kg, fasted male Sprague Dawley rats, read-out: AUClast
[7] = male, Sprague-Dawley, rat, brain, po, 2 mg/kg, brain, oral gavage 2 mg/kg, fasted male Sprague Dawley rats, read-out: Cmax
[8] = male, Sprague-Dawley, rat, brain, po, 2 mg/kg, oral dose 2 mg/kg, rats, read-out: AUClast in brain
[9] = rat, brain/plasma, oral gavage 2 mg/kg, fasted male Sprague Dawley rats, read-out: Ratio Brain/Plasma Cmax
[10] = rat, brain, oral gavage 2 mg/kg, fasted male Sprague Dawley rats
[11] = rat, brain, oral gavage 2 mg/kg, fasted male Sprague Dawley rats, read-out: Ratio Brain/Plasma AUClast
[12] = plasma, molecular weight corrected (caffeine values multiplied by 0.956), oral gavage 2 mg/kg, rats
[13] = in words, molecular weight corrected, oral 2 mg/kg, rats

Structure (SMILES)	measurable brain concentrations ([1]; in words, rats)	concentration at 1 h [1, 3] [ng/g]	concentration at 4 h [1, 3] [ng/g]	concentration at 14 h [1, 3] [ng/g]	AUC(0-t) [1, 4] [ng·h/mL]	Cmax [1, 5] [ng/mL]	AUC(0-t) [1, 6] [ng·h/mL]	Cmax [1, 7] [ng/mL]	AUC(0-t) [1, 8] [ng·h/mL]	Kp [1, 9]	Tmax [1, 10] [h]	Kp [1, 11]	AUC(0-inf) (in vivo) [ng·h/mL]	AUC(0-t) (in vivo) [ng·h/mL]	Cmax (in vivo) [ng/mL]	Tmax (in vivo) [h]	concentration at 0.25 h (in vivo) [ng/mL]	concentration at 0.5 h (in vivo) [ng/mL]	concentration at 1 h (in vivo) [ng/mL]	concentration at 2 h (in vivo) [ng/mL]	also measured
Cn1c(=O)c2c(ncn2C)n(C)c1=O [Caffeine, reference compound]	detected in all animals evaluated at each time point through 14 hours post dose	1910	1210	62.6	10500	1820	11000	1900	11000	0.73	1	0.69	16000	16000	2600	1	2420	2410	2640	2070	concentration at 8 h ([1]; male, Sprague-Dawley, rat, brain, po, 2 mg/kg, 8 hour post dose, oral gavage 2 mg/kg, fasted male Sprague-Dawley rats, n = 3/time point): 553 ng/g; AUC(0-inf) [1, 10]: 11000 ng·h/mL; concentration at 3 h (in vivo): 2030 ng/mL; concentration at 4 h (in vivo): 1820 ng/mL; half-life (in vivo): 1.9 h; Concentration in plasma, Mean ([2]; 8 hour post dose, oral gavage 2 mg/kg): 849 ng/mL; Concentration in plasma, Mean ([2]; 10 hour post dose, oral gavage 2 mg/kg): 344 ng/mL; Concentration in plasma, Mean ([2]; 12 hour post dose, oral gavage 2 mg/kg): 171 ng/mL; Concentration in plasma, Mean ([2]; 14 hour post dose, oral gavage 2 mg/kg): 97.1 ng/mL; measurable plasma concentrations ([2]; in words, rats): detected in all animals evaluated at each time point through 14 hours post dose; AUCinf, corr [2, 12]: 15296 ng·h/mL; AUClast, corr [2, 12]: 15296 ng·h/mL; AUClast ([2]; plasma, oral gavage 2 mg/kg): 16000 ng·h/mL; T 1/2 (terminal half life) ([2]; plasma, oral gavage 2 mg/kg): 1.9 h
[2H]C([2H])([2H])n1c(=O)c2c(ncn2C([2H])([2H])[2H])n(C([2H])([2H])[2H])c1=O [Compound D9-Caffeine, D9-caffeine]	detected in all animals evaluated at each time point through 14 hours post dose	1540	1640	463	16000	1600	16000	1600	16000	0.67	4	0.73	27000	22000	2400	3	1720	1740	2090	2340	total brain exposure (AUClast,corr) higher than caffeine ([1]; brain, molecular weight corrected, oral 2 mg/kg, rats): approximately 52%; brain Cmax compared with caffeine [1, 13]: slightly lower; AUC exposure in brain compared with a corresponding dose of caffeine ([1]; in words, oral 2 mg/kg, rats): higher; concentration at 3 h (in vivo): 2360 ng/mL; concentration at 4 h (in vivo): 2270 ng/mL; concentration at 6 h (in vivo): 1790 ng/mL; concentration at 8 h (in vivo): 1550 ng/mL; concentration at 12 h (in vivo): 897 ng/mL; concentration at 14 h (in vivo): 682 ng/mL; half-life (in vivo): 5 h; measurable plasma concentrations ([2]; in words, rats): detected in all animals evaluated at each time point through 14 hours post dose; plasma Cmax compared with caffeine [2, 13]: similar; systemic (AUC) exposure in plasma compared with a corresponding dose of caffeine ([2]; in words, oral 2 mg/kg, rats): higher; half-life compared with a corresponding dose of caffeine ([2]; in words, plasma, oral 2 mg/kg, rats): longer; AUCinf, corr [2, 12]: 27000 ng·h/mL; AUClast, corr [2, 12]: 22000 ng·h/mL; Cmax, corr [2, 12]: 2400 ng/mL; total systemic exposure (AUCinf) higher than caffeine ([2]; plasma, molecular weight corrected, oral 2 mg/kg, rats): approximately 77%; AUClast ([2]; plasma, oral gavage 2 mg/kg): 22000 ng·h/mL; T 1/2 (terminal half life) ([2]; plasma, oral gavage 2 mg/kg): 5 h
